For orientation: ED50 means the midpoint of the dose-response relation. Broadly, the IC50 is the concentration that inhibits the measured activity by half. High values mean lower potency, low ones higher potency.

The results in this text go back to ChEMBL document CHEMBL3785088, “Synthesis, anti-inflammatory, analgesic and COX-1/2 inhibition activities of anilides based on 5,5-diphenylimidazolidine-2,4-dione scaffold: Molecular docking studies” (Eur J Med Chem, 2016).

A value given as a limit tells only on which side of the number the result lay.

Experiment [1] relates to Rattus norvegicus. As to the kind of experiment: Antiinflammatory activity in ip dosed Sprague-Dawley rat assessed as inhibition of carrageenan-induced foot paw edema measured 2 hrs post carrageenan challenge by plethysmometry. In kind it is functional. Background: The carrageenan paw model is a standard test of acute inflammation.
The subject of experiment [2] is Mus musculus. As to the kind of experiment: Analgesic activity in ip dosed albino Swiss mouse assessed as reduction in licking and blowing response at 58 deg C measured after 60 mins by hot plate test. The settings on record: 1 h. In kind it is functional. Background: In hot-plate and tail-flick tests a longer latency is read as antinociception.
For experiment [3], the target named is T1, Prostaglandin G/H synthase 1 (Ovis aries, UniProt P05979).
T1 sequence (P05979 whole entry): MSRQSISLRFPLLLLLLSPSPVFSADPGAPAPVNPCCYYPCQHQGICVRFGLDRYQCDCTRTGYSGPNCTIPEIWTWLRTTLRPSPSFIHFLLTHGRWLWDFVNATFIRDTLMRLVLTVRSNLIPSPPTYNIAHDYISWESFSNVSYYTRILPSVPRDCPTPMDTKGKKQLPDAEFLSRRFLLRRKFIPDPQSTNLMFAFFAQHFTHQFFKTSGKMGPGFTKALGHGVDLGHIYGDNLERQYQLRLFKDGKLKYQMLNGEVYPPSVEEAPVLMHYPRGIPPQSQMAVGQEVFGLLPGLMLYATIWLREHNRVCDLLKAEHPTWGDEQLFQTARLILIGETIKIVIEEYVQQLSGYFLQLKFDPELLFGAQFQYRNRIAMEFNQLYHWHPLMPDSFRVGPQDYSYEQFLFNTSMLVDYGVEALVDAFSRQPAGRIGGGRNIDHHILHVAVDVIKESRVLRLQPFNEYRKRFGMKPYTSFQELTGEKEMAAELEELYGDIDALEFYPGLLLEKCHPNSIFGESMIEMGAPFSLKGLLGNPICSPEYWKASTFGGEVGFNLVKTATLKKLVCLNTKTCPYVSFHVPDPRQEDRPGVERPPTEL
As to the kind of experiment: Inhibition of ovine COX1 preincubated for 5 mins followed by addition of arachidonic acid as substrate measured after 2 mins by enzyme immunoassay.

`O=C(CN1C(=O)NC(c2ccccc2)(c2ccccc2)C1=O)c1ccccc1`: the median effective dose (ED50) in experiment [1] was above 200 mg/kg.
`COc1ccc(NC(=O)CN2C(=O)NC(c3ccccc3)(c3ccccc3)C2=O)cc1`: the median effective dose (ED50) in experiment [1] came out at 120 mg/kg; in experiment [2] it was 86 mg/kg. The half-maximal inhibitory concentration (IC50) in experiment [3] is above 100 µM.
For `O=C(CCN1C(=O)NC(c2ccccc2)(c2ccccc2)C1=O)NCc1ccc(F)cc1` the same measures were 122 mg/kg, 75 mg/kg and above 100 µM.
For `COc1ccc(/C=N/N2C(=O)NC(c3ccccc3)(c3ccccc3)C2=O)cc1`, the ED50 in experiment [1] was above 200 mg/kg.
Same read-out and setting: for `O=C(CN1C(=O)NC(c2ccccc2)(c2ccccc2)C1=O)N/N=C/c1ccc(F)cc1` the value was above 200 mg/kg.
Regarding `COc1ccc(C(=O)CN2C(=O)NC(c3ccccc3)(c3ccccc3)C2=O)cc1`, the values for the 50% effective dose (ED50) in experiment [1] and in experiment [2] were 155 mg/kg and 184 mg/kg, respectively. In addition, the IC50 in experiment [3] is 70.5 µM.
For `Cc1ccc(-c2cc(C(F)(F)F)nn2-c2ccc(S(N)(=O)=O)cc2)cc1` [CELECOXIB], the ED50 in experiment [1] was 86.4 mg/kg; in experiment [2] it was 74.1 mg/kg.
Consider `COc1ccc(NC(=O)CCN2C(=O)NC(c3ccccc3)(c3ccccc3)C2=O)cc1`, for which the ED50 in experiment [1] was determined as 98 mg/kg; in experiment [2], 71.1 mg/kg. Moreover, the IC50 in experiment [3] was above 100 µM.
With `O=C(CN1C(=O)NC(c2ccccc2)(c2ccccc2)C1=O)NCc1ccccc1`, the 50% effective dose (ED50) in experiment [1] is above 200 mg/kg.
`O=C(CN1C(=O)NC(c2ccccc2)(c2ccccc2)C1=O)Nc1ccc(F)cc1`: the 50% effective dose (ED50) worked out at 129 mg/kg in experiment [1] and 119 mg/kg in experiment [2]. Further, in experiment [3], the concentration for half-maximal inhibition (IC50) was above 100 µM.
With `O=C(CCN1C(=O)NC(c2ccccc2)(c2ccccc2)C1=O)Nc1ccccc1`, in experiment [1], the ED50 was above 200 mg/kg.
As for `COc1ccc(CNC(=O)CN2C(=O)NC(c3ccccc3)(c3ccccc3)C2=O)cc1`, the ED50 in experiment [1] amounted to 109 mg/kg; in experiment [2] it was 67.3 mg/kg. In experiment [3], this compound registered an IC50 above 100 µM.
`NS(=O)(=O)c1ccc(NC(=O)CN2C(=O)NC(c3ccccc3)(c3ccccc3)C2=O)cc1`: the figures for the ED50 in experiment [1] and in experiment [2] were 97 mg/kg and 66.2 mg/kg, respectively. The concentration for half-maximal inhibition (IC50) in experiment [3] was above 100 µM.
Take `COc1cc(CNC(=O)CN2C(=O)NC(c3ccccc3)(c3ccccc3)C2=O)cc(OC)c1OC`: the figures for the median effective dose (ED50) in experiment [1] and in experiment [2] were 90 mg/kg and 68.5 mg/kg, respectively. The compound further came in with a 50% inhibitory concentration (IC50) in experiment [3] above 100 µM.
Consider `O=C(CCN1C(=O)NC(c2ccccc2)(c2ccccc2)C1=O)Nc1ccc(F)cc1`, for which the median effective dose (ED50) came out at 123 mg/kg in experiment [1] and 80.1 mg/kg in experiment [2]. Further, the half-inhibitory concentration (IC50) in experiment [3] was above 100 µM.
Consider `O=C(CN1C(=O)NC(c2ccccc2)(c2ccccc2)C1=O)NCc1ccc(F)cc1`, for which the median effective dose (ED50) worked out at 120 mg/kg in experiment [1] and 90.9 mg/kg in experiment [2]. The compound further had a concentration for half-maximal inhibition (IC50) in experiment [3] above 100 µM.
For `O=C(CN1C(=O)NC(c2ccccc2)(c2ccccc2)C1=O)c1ccc(F)cc1` the same measures were 156 mg/kg, 142 mg/kg and 70.5 µM.
As to `COc1ccc(CNC(=O)CCN2C(=O)NC(c3ccccc3)(c3ccccc3)C2=O)cc1`, the median effective dose (ED50) in experiment [1] is 112 mg/kg; in experiment [2], 122 mg/kg. In addition, in experiment [3], the IC50 is above 100 µM.
`O=C(CN1C(=O)NC(c2ccccc2)(c2ccccc2)C1=O)Nc1ccccc1`: the 50% effective dose (ED50) in experiment [1] was above 200 mg/kg.
Turning to `NS(=O)(=O)c1ccc(NC(=O)CCN2C(=O)NC(c3ccccc3)(c3ccccc3)C2=O)cc1`, the ED50 in experiment [1] stood at 75 mg/kg; in experiment [2], 40.3 mg/kg. In experiment [3], the IC50 was above 100 µM.
For `NS(=O)(=O)c1ccc(CNC(=O)CN2C(=O)NC(c3ccccc3)(c3ccccc3)C2=O)cc1` the same measures were 75 mg/kg, 54.6 mg/kg and above 100 µM.
In the case of `COc1ccc(/C=N/NC(=O)CN2C(=O)NC(c3ccccc3)(c3ccccc3)C2=O)cc1`, in experiment [1], the 50% effective dose (ED50) is above 200 mg/kg.
For `O=C(CN1C(=O)NC(c2ccccc2)(c2ccccc2)C1=O)N/N=C/c1ccccc1`, in experiment [1], the median effective dose (ED50) was above 200 mg/kg.
Still for that read-out and setting: for `O=C(CCN1C(=O)NC(c2ccccc2)(c2ccccc2)C1=O)NCc1ccccc1` the value was above 200 mg/kg.
